# Test results from patent publication US20240158369A1, “PYRIMIDINE COMPOUND AS WEE-1 INHIBITOR” (WIGEN BIOMEDICINE TECHNOLOGY (SHANGHAI) CO., LTD., priority 2021, published 2024).
# Columns and labels:
# MIA PaCa-2 cells [1] = experiment: In-vitro anti-proliferative activity in combination with gemcitabine on MIA PaCa-2 cells; type: cell-based; conditions: 72 h
# Experimental: (§1) MIA PaCa-2 cells were seeded on a 384-well plate at 3000 cells/well, and 20 nM or 200 nM gemcitabine (GMC) was added. After overnight adherence culture, DMSO or the compounds serially 1:5-diluted from 100 nM were added. The viability was assessed 72 h after dosing by measuring the intracellular ATP content. The inhibition percentage of viable cells by the compounds was calculated by comparing with the DMSO group, and the IC50 value was calculated.
# MIA PaCa-2 cells [2] = experiment: In-vitro anti-proliferative activity on MIA PaCa-2 cells (intracellular ATP content, 72 h); type: cell-based; conditions: Homo sapiens, compound alone, read-out: IC50 (nM) antiproliferative activity against MIA PaCa-2 cells
# Experimental: as §1, with “cells/well.” for “cells/well, and 20 nM or 200 nM gemcitabine (GMC) was added.”, “5 μM” for “100 nM”
# [3] = target: recombinant protein Wee-1 (Homo sapiens (Human), UniProt P30291); experiment: HTRF assay for inhibiting enzymatic activity of recombinant protein Wee-1; type: biochemical; conditions: compounds up to 200 nM, read-out: (IC50) Inhibitory activity against recombinant protein Wee-1
# Experimental: The inhibitory effect of the compounds on the enzyme activity of recombinant protein Wee-1 was determined by HTRF. The procedures are as follows:
# After DMSO or serially diluted compounds (up to 200 nM, 1:5 diluted) and recombinant proteins were co-incubated in a kinase buffer at 37° C. for 30 min before Fluorescein-PolyGAT and ATP were added, and the reaction was initiated by addition of a substrate. After incubation at room temperature for 90 min, an antibody and a detection solution were added, and after further incubation at room temperature for 60 min, fluorescence values were detected (excitation wavelength: 340 nm, emission wavelengths: 495 and 520 nm). The 520 nm/495 nm fluorescence intensity ratio value was calculated, and compared with that of the DMSO group, and then the inhibition percentages and IC50 values of the compounds were calculated.
# [4] = tested on: HT29 subcutaneous xenograft tumor; experiment: Mouse HT29 subcutaneous xenograft tumor model (Example 165), with 30 mg/kg gemcitabine; type: in vivo
# Experimental: HT29 is a colon cancer cell. Each nude mouse was grafted subcutaneously with 5×10^6HT29 cells. When the tumor grew to 100-200 mm^3, the compound was administered orally once a day in combination with 30 mg/kg of gemcitabine injected intraperitoneally once a week, and the tumor volume was measured twice a week and at the end of treatment. Tumor growth inhibition of the compound was calculated according to the following equation: tumor growth inhibition (TGI)=1−(tumor volume on day 20 in treatment group−tumor volume on day 1 in treatment group)/(tumor volume on day 20 in vehicle control group−tumor volume on day 1 in treatment group).
# [5] = tested on: HT29 subcutaneous xenograft tumor; experiment: Mouse HT29 subcutaneous xenograft tumor model (Example 164), alone or with 15 mg/kg gemcitabine; type: in vivo
# Experimental: HT29 is a colon cancer cell. Each nude mouse was grafted subcutaneously with 5×10^6HT29 cells. When the tumor grew to 100-200 mm^3, the compound was administered orally once a day alone or in combination with 15 mg/kg of gemcitabine injected intraperitoneally once a week, and the tumor volume was measured twice a week and at the end of treatment. Tumor growth inhibition of the compound was calculated according to the following equation: tumor growth inhibition (TGI)=1−(tumor volume on day 20 in treatment group−tumor volume on day 1 in treatment group)/(tumor volume on day 20 in vehicle control group−tumor volume on day 1 in treatment group).
# [6] = with 20 nM gemcitabine, read-out: in combination with 20 nM GMC IC50
# [7] = 30 mg/kg orally once a day in combination with 30 mg/kg of gemcitabine ip once a week
# [8] = 30 mg/kg orally once a day in combination with 30 mg/kg of gemcitabine ip once a week, day 20
# [9] = gemcitabine alone 15 mg/kg intraperitoneally once a week, day 20
# [10] = with 200 nM gemcitabine, read-out: in combination with 200 nM GMC IC50
# [11] = 30 mg/kg orally once a day in combination with 15 mg/kg of gemcitabine ip once a week, day 1
# [12] = 30 mg/kg orally once a day in combination with 15 mg/kg of gemcitabine ip once a week, day 20
# [13] = monotherapy, 30 mg/kg orally once a day, nude mouse HT29, day 1
# [14] = monotherapy, 30 mg/kg orally once a day, nude mouse HT29, day 20
# recombinant protein Wee-1, sequence (P30291 whole entry): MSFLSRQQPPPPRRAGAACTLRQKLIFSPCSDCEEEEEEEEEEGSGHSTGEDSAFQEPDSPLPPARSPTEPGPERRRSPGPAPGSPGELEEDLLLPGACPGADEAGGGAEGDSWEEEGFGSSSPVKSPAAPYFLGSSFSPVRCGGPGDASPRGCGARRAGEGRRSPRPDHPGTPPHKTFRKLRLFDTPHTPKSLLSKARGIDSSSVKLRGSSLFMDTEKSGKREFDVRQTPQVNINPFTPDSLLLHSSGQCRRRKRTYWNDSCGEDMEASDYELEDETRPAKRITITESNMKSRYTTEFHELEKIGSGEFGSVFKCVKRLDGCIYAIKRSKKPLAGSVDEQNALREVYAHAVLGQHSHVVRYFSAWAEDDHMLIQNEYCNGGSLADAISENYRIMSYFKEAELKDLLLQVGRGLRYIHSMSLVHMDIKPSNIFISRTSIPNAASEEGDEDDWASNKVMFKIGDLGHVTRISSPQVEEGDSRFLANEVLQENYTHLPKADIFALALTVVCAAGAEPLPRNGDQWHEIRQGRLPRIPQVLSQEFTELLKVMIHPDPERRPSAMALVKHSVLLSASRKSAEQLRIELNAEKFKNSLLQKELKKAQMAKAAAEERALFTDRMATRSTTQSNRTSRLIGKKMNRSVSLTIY
Structure (SMILES),IC50 (MIA PaCa-2 cells [1]; [6]) [nM],IC50 [3] [nM],further results
CN1CCc2ccc(Nc3ncc(P(C)(C)=O)c(Nc4cccc(N=S(C)(C)=O)n4)n3)cc2C1 [Compound 4],> 100,> 50,IC50 (MIA PaCa-2 cells [2]): > 5000 nM
CC(C)Cc1cc(Nc2ncc(C#N)c(Nc3cccc(N=S(C)(C)=O)n3)n2)cc2c1CCN(C)C2 [Compound 87],1.8,–,"Tumor volume on day 20 of treatment (mm^3) [4, 7]: 395 mm^3; TGI [4, 8]: 79%"
CC(C)c1cc(Nc2ncc(C#N)c(Nc3cccc(N=S(C)(C)=O)n3)n2)cc2c1CCN(C)C2 [Compound 14],1,≤ 10,"Tumor volume on day 20 of treatment (mm^3) [4, 7]: 38 mm^3; TGI [4, 8]: 106%"
CN1CCc2ccc(Nc3ncc(C#N)c(Nc4cccc(N=S(C)(C)=O)n4)n3)cc2C1 [Compound 1],4.6,≤ 10,IC50 (MIA PaCa-2 cells [2]): 735 nM
CN1CCc2c(cc(Nc3ncc(C#N)c(Nc4cccc(N=S(C)(C)=O)n4)n3)cc2C2CCOCC2)C1 [Compound 117],1.5,≤ 10,"Tumor volume on day 20 of treatment (mm^3) [4, 7]: 283 mm^3; TGI [4, 8]: 87%"
COCCCc1cc(Nc2ncc(C#N)c(Nc3cccc(N=S(C)(C)=O)n3)n2)cc2c1CCN(C)C2 [Compound 128],2.5,≤ 10,"Tumor volume on day 20 of treatment (mm^3) [4, 7]: 284 mm^3; TGI [4, 8]: 87%"
CN1CCc2c(cc(Nc3ncc(C#N)c(Nc4cccc(N=S(C)(C)=O)n4)n3)cc2C2(C)CC2)C1 [Compound 101],4.4,≤ 10,"Tumor volume on day 20 of treatment (mm^3) [4, 7]: 95 mm^3; TGI [4, 8]: 102%"
"Nc1ccn([C@@H]2O[C@H](CO)[C@@H](O)C2(F)F)c(=O)n1 [Gemcitabine, gemcitabine, reference compound]",–,–,"Tumor volume on day 1 of treatment (mm^3) ([5]; gemcitabine alone 15 mg/kg intraperitoneally once a week, day 1): 102 mm^3; TGI [5, 9]: 54%; Tumor volume on day 20 of treatment (mm^3) [5, 9]: 550 mm^3; inhibition in vivo at 30 mg/kg ([4]; Mus musculus, HT-29, ip, 480 h, gemcitabine alone 30 mg/kg intraperitoneally once a week, day 20, read-out: TGI): 60%; Tumor volume on day 20 of treatment (mm^3) ([4]; gemcitabine alone 30 mg/kg intraperitoneally once a week): 653 mm^3"
CN1CCc2ccc(Nc3ncc(C(F)(F)F)c(Nc4cccc(N=S(C)(C)=O)n4)n3)cc2C1 [Compound 2],30,> 50,IC50 (MIA PaCa-2 cells [2]): 398 nM
CN1CCc2ccc(Nc3ncc(-c4ccc(F)nc4)c(Nc4cccc(N=S(C)(C)=O)n4)n3)cc2C1 [Compound 108],> 100,10 to 50,–
CN1CCN(c2ccc(Nc3ncc(C#N)c(Nc4cccc(N=S(C)(C)=O)n4)n3)cc2C2CC2)CC1 [Compound 155],5.4,≤ 10,–
COc1cc2c(cc1Nc1ncc(C#N)c(Nc3cccc(N=S(C)(C)=O)n3)n1)CN(C)CC2 [Compound 147],50,≤ 10,–
CN1CCc2ccc(Nc3ncc(C4CC4)c(Nc4cccc(N=S(C)(C)=O)n4)n3)cc2C1 [Compound 3],–,> 50,IC50 (MIA PaCa-2 cells [1]; [10]): > 100 nM; IC50 (MIA PaCa-2 cells [2]): 879 nM
CN1CCc2ccc(Nc3ncc(C#N)c(-c4cn(C)c5c(N=S(C)(C)=O)cccc45)n3)cc2C1 [Compound 79],–,≤ 10,IC50 (MIA PaCa-2 cells [1]; [10]): > 100 nM
CN1CCc2c(cc(Nc3ncc(C#N)c(Nc4cccc(N=S(C)(C)=O)n4)n3)cc2N2CCOCC2)C1 [Compound 116],1.3,≤ 10,–
CN(C)C1CCc2ccc(Nc3ncc(C#N)c(Nc4cccc(N=S(C)(C)=O)n4)n3)cc2CC1 (centres unmarked) [Compound 52],4.5,≤ 10,–
CN1CCc2c(cc(Nc3ncc(C#N)c(Nc4cccc(N=S(C)(C)=O)n4)n3)cc2C2CCC2)C1 [Compound 97],1.6,≤ 10,"Tumor volume on day 20 of treatment (mm^3) [4, 7]: 278 mm^3; TGI [4, 8]: 88%"
CN1CCc2c(cc(Nc3ncc(C#N)c(Nc4cccc(N=S(C)(C)=O)n4)n3)cc2C2CCCC2)C1 [Compound 18],2.1,≤ 10,"Tumor volume on day 20 of treatment (mm^3) [4, 7]: 218 mm^3; TGI [4, 8]: 92%"
CCN1CCc2c(cc(Nc3ncc(C#N)c(Nc4cccc(N=S(C)(C)=O)n4)n3)cc2C2CC2)C1 [Compound 137],3.3,≤ 10,"Tumor volume on day 1 of treatment (mm^3) [5, 11]: 102 mm^3; TGI [5, 12]: 100%; Tumor volume on day 20 of treatment (mm^3) [5, 12]: 97 mm^3; Tumor volume on day 1 of treatment (mm^3) [5, 13]: 102 mm^3; TGI [5, 14]: 51%; Tumor volume on day 20 of treatment (mm^3) [5, 14]: 573 mm^3"
Cc1cc(Nc2ncc(C#N)c(Nc3cccc(N=S(C)(C)=O)n3)n2)cc(C)c1N1CCN(C)CC1 [Compound 154],2.4,≤ 10,–
CN1CCc2c(C#N)cc(Nc3ncc(C#N)c(Nc4cccc(N=S(C)(C)=O)n4)n3)cc2C1 [Compound 41],–,10 to 50,IC50 (MIA PaCa-2 cells [1]; [10]): > 100 nM
CN1CCc2c(F)cc(Nc3ncc(C#N)c(Nc4cccc(N=S(C)(C)=O)n4)n3)cc2C1 [Compound 25],18.6,≤ 10,–
CN1CCc2c(cc(Nc3ncc(C#N)c(Nc4ccccc4N=S(C)(C)=O)n3)cc2C2CC2)C1 [Compound 150],3.5,10 to 50,–
CC1CN(c2cc(Nc3ncc(C#N)c(Nc4cccc(N=S(C)(C)=O)n4)n3)cc3c2CCN(C)C3)CCO1 (centres unmarked) [Compound 123],28,≤ 10,–
CS(C)(=O)=Nc1cccc(Nc2nc(Nc3ccc4c(c3)CCC(N3CCCC3)CC4)ncc2C#N)n1 (centres unmarked) [Compound 146],4.8,≤ 10,–
CCc1cc(Nc2ncc(C#N)c(Nc3cccc(N=S(C)(C)=O)n3)n2)cc2c1CCN(C)C2 [Compound 13],–,≤ 10,"IC50 (MIA PaCa-2 cells [1]; [10]): 1 nM; Tumor volume on day 1 of treatment (mm^3) [5, 11]: 102 mm^3; TGI [5, 12]: 109%; Tumor volume on day 20 of treatment (mm^3) [5, 12]: 14 mm^3; Tumor volume on day 1 of treatment (mm^3) [5, 13]: 102 mm^3; TGI [5, 14]: 97%; Tumor volume on day 20 of treatment (mm^3) [5, 14]: 129 mm^3"
CN1CCc2c(cc(Nc3ncc(C#N)c(Nc4cccc(N=S(C)(C)=O)n4)n3)cc2N2CCCC2)C1 [Compound 19],–,≤ 10,IC50 (MIA PaCa-2 cells [1]; [10]): 640 nM
CN1CCN(c2cc(Nc3ncc(C#N)c(Nc4cccc(N=S(C)(C)=O)n4)n3)cc3c2CCN(C)C3)CC1 [Compound 119],2.6,≤ 10,–
COCc1cc(Nc2ncc(C#N)c(Nc3cccc(N=S(C)(C)=O)n3)n2)cc2c1CCN(C)C2 [Compound 124],2.7,≤ 10,–
CN1CCc2c(cc(Nc3ncc(C#N)c(Nc4cccc(N=S(C)(C)=O)n4)n3)cc2C2CC2)C1 [Compound 16],–,≤ 10,"IC50 (MIA PaCa-2 cells [1]; [10]): 1 nM; Tumor volume on day 1 of treatment (mm^3) [5, 11]: 102 mm^3; TGI [5, 12]: 104%; Tumor volume on day 20 of treatment (mm^3) [5, 12]: 58 mm^3; Tumor volume on day 1 of treatment (mm^3) [5, 13]: 102 mm^3; TGI [5, 14]: 79%; Tumor volume on day 20 of treatment (mm^3) [5, 14]: 307 mm^3"
